Assay [1] concerns the target T1, p53 Y220S mutant DBD (Homo sapiens, UniProt P04637, M133L/N239Y/N268D/V203A/Y220S).
T1 construct: the mutant p53 DBD (residues 94–312) of interest; 6xHis (N, cleaved yes); lipoyl domain of dihydrolipoamide acetyltransferase (Bacillus stearothermophilus) (N, cleaved yes); made in house; host or cells: E. coli C41
Briefly: DSF thermal shift assay, Y220S mutant. Type of assay: binding. To be noted: 250 μM compound. How it is done:
(§1) Melting temperatures of the p53 mutants were determined by differential scanning fluorimetry (DSF) using the dye SYPRO Orange (Invitrogen), which quantitatively binds to hydrophobic protein patches that become exposed upon thermal unfolding. Real-time melt analyses were performed using either an Agilent MX3005P (heating rate of 270 K/h excitation/emission filters = 492/610 nm; Tables 2 and 4) or a Corbett Rotor-Gene 6000 real-time qPCR thermocycler (heating rate of 180 K/h, excitation/emission filters = 460/510 nm; Table 3). Tm measurements were performed with 8 μM p53 protein and 5–10 × SYPRO Orange (Life Technologies) in a 25 mM KPi (pH 7.2), 150 mM NaCl, and 1 mM TCEP assay buffer. For measurements of compound-induced Tm shifts (ΔTm), the assay buffer additionally contained 5% DMSO (v/v), with either 250 μM ligand or no ligand (control). ΔTm values were calculated as ΔTm = Tm (protein + compound) – Tm (protein). Native melting curves were measured in quadruplicate and compound-induced thermal shifts in triplicate or higher. Mean values ± SEM are given.

Assay [2] has as its target T2, p53 Y220C mutant DBD (Homo sapiens, UniProt P04637, M133L/N239Y/N268D/V203A/Y220C).
T2 construct: the mutant p53 DBD (residues 94–312) of interest; 6xHis (N, cleaved yes); lipoyl domain of dihydrolipoamide acetyltransferase (Bacillus stearothermophilus) (N, cleaved yes); made in house; host or cells: E. coli C41
Briefly: DSF thermal shift assay, Y220C mutant. The class given is binding. The following applies: 250 μM compound. How it is done: as §1

For assay [3], the target named is T3, p53 DBD WT (stabilized M133L/V203A/N239Y/N268D) (Homo sapiens, UniProt P04637, M133L/N239Y/N268D/V203A).
T3 construct: the mutant p53 DBD (residues 94–312) of interest; 6xHis (N, cleaved yes); lipoyl domain of dihydrolipoamide acetyltransferase (Bacillus stearothermophilus) (N, cleaved yes); made in house; host or cells: E. coli C41
Description: DSF thermal shift assay, WT (stabilized quadruple mutant DBD). Type of assay: binding. To be noted: 250 μM compound, Agilent MX3005P, 270 K/h, triplicate, mean ± SEM (Table 4). How it is done: as §1

Assay [4] deals with T4, p53 Y220N mutant DBD (Homo sapiens, UniProt P04637, M133L/N239Y/N268D/V203A/Y220N).
T4 construct: the mutant p53 DBD (residues 94–312) of interest; 6xHis (N, cleaved yes); lipoyl domain of dihydrolipoamide acetyltransferase (Bacillus stearothermophilus) (N, cleaved yes); made in house; host or cells: E. coli C41
Briefly: DSF thermal shift assay, Y220N mutant. The class given is binding. To be noted: 250 μM compound, Agilent MX3005P, 270 K/h, triplicate, mean ± SEM (Table 4). How it is done: as §1

Assay [5] concerns the target T5, p53 Y220H mutant DBD (Homo sapiens, UniProt P04637, M133L/N239Y/N268D/V203A/Y220H).
T5 construct: the mutant p53 DBD (residues 94–312) of interest; 6xHis (N, cleaved yes); lipoyl domain of dihydrolipoamide acetyltransferase (Bacillus stearothermophilus) (N, cleaved yes); made in house; host or cells: E. coli C41
Briefly: DSF thermal shift assay, Y220H mutant. Type of assay: binding. The following applies: 250 μM compound, Agilent MX3005P, 270 K/h, triplicate, mean ± SEM (Table 4). How it is done: as §1

The target in assay [6] is T1, p53 Y220S mutant DBD. Description: Isothermal titration calorimetry, Y220S mutant. Type of assay: binding. To be noted: for Kd: ITC, 20 °C, 25 mM KPi pH 7.2, 5% DMSO. How it is done: (§2) Isothermal titration calorimetry (ITC) experiments for the Y220C and Y220S mutants were performed using a MicroCal (Amherst) iTC200 calorimeter as described.[14] Briefly, the cell unit contained 30–50 μM protein in a 25 mM KPi (pH 7.2), 150 mM NaCl, 1 mM TCEP, and 5% (v/v) DMSO assay buffer. The syringe contained 0.5–2 mM compound in the same buffer, using injection steps of 2 μL at a rate of 0.5 μL/s (initial injection: 0.5 μL) and 120 s spacing. […] Data analysis was performed using the MicroCal Origin software. ITC measurements for the Y220N mutant were carried out with the same buffers as above but using a Nano ITC microcalorimeter (TA Instruments) and injection steps of 8 μL, at a rate of 0.5 μL/s, and 200 s spacing. Data were processed using the NanoAnalyze software (Version 3.5.0) supplied with the instrument. All measurements were performed at 20 °C.
On the technique in general: Isothermal titration calorimetry measures the heat released or taken up as one component is titrated into another.

For assay [7], the target named is T4, p53 Y220N mutant DBD. Briefly: Isothermal titration calorimetry, Y220N mutant. The class given is binding. To be noted: ITC, Nano ITC, 20 °C. How it is done: as §2
Assay [8] has as its target T2, p53 Y220C mutant DBD. To be noted: ITC, cited from earlier work.
The mark [9] stands for this setting: 8 μM protein, 5% DMSO, Rotor-Gene 6000, 180 K/h, quadruplicate, mean ± SEM (Table 3), read-out: Y220S mutant ΔTm.
Setting [10] is: 8 μM protein, 5% DMSO, Rotor-Gene 6000, 180 K/h, quadruplicate, mean ± SEM (Table 3), read-out: Y220C mutant ΔTm.
Setting [11] is: Agilent MX3005P, 270 K/h, triplicate, mean ± SEM (Table 4), read-out: ΔTm Y220S.
The mark [12] stands for this setting: Agilent MX3005P, 270 K/h, triplicate, mean ± SEM (Table 4), read-out: ΔTm Y220C.

Read-outs that look alike come from different tables or passages of the source.

For the compound `CCn1c2ccccc2c2cc(CNC)ccc21` [PK083], the values for the ΔTm at 250 µM in assay [1] (setting [9]) and in assay [2] (setting [10]) were 0.7 ± 0.1 °C and 1 ± 0.1 °C, respectively.

In the case of `CNCc1ccc2c(c1)c1ccccc1n2CC(F)(F)F` [PK9255], the ΔTm (in general, the change in melting temperature against a reference sample) at 250 µM in assay [1] (setting [9]) worked out at 3.2 °C; in assay [1] (setting [11]) it was 3.2 °C; in assay [2] (setting [10]), 1.7 ± 0.1 °C; in assay [2] (setting [12]), 1.7 ± 0.1 °C; in assay [3] it was 0 °C; in assay [4], 1.4 ± 0.1 °C. The ΔTm at 250 µM in assay [5] came to 0.2 ± 0.1 °C. For the same compound, the “ΔTm Y220H” value in assay [5] was “no significant stabilizing effect”. Further, the Kd (as a rule, the constant that tells how readily two partners part at equilibrium) in assay [6] is 16 ± 2 µM; in assay [7] it was 40 µM; in assay [8] (ref 14 (Bauer et al.)), 28 µM. For the same compound, in assay [6] (Kd 16 μM (Y220S) vs 28 μM (Y220C)), the “Tighter binding to Y220S than to Y220C (ratio of Kd)” value is reported as “about 2 times”.

For `CCn1c2ccc(CNC)cc2c2ccc(Br)cc21` [PK9284], the ΔTm at 250 µM in assay [1] (setting [9]) was found to be 1.8 ± 0.1 °C; in assay [2] (setting [10]), 2.4 ± 0.1 °C. For the same compound, the Kd in assay [8] (ref 17 (Bauer et al.)) is 14 ± 2 µM.

On to `CCn1c2ccc(CN(C)C)cc2c2ccc(Br)cc21` [PK9285], for which the ΔTm at 250 µM is 2.1 ± 0.1 °C in assay [1] (setting [11]); 2 °C in assay [2] (setting [12]); -0.2 ± 0.1 °C in assay [3]; 1.4 ± 0.1 °C in assay [4]; 0.2 °C in assay [5].

As for `CCOc1ccc2c3cc(CNC)ccc3n(CC)c2c1` [PK9295], the ΔTm at 250 µM in assay [1] (setting [9]) came to 0.9 °C; in assay [2] (setting [10]) it was 1.2 ± 0.1 °C. In assay [8] (ref 17 (Bauer et al.)), the Kd was 62 ± 7 µM.

Consider `CNCc1ccc2c(c1)c1ccc(Br)cc1n2CC(F)(F)F` [PK9301, 1-(7-Bromo-9-(2,2,2-trifluoroethyl)-9H-carbazol-3-yl)-N-methylmethanamine], for which the ΔTm at 250 µM in assay [1] (setting [9]) is over 5 °C; in assay [2] (setting [10]) it was 3.5 ± 0.1 °C. This compound also returned a Kd in assay [6] of 4 ± 1 µM.

With `CCn1c2ccc(CNC)cc2c2ccc(-c3cccs3)cc21` [PK9318], the ΔTm at 250 µM in assay [1] (setting [9]) was 2.1 °C; in assay [2] (setting [10]), 4.4 ± 0.1 °C. In assay [8] (ref 17 (Bauer et al.)), the Kd is 2.6 ± 0.4 µM.

With `CCn1c2ccc(CNC)cc2c2ccc(-c3ccco3)cc21` [PK9320], the ΔTm at 250 µM in assay [1] (setting [9]) was 1.8 ± 0.1 °C; in assay [2] (setting [10]) it was 3.4 °C. The Kd in assay [8] (ref 17 (Bauer et al.)) was 4.1 ± 0.2 µM.

As to `CCn1c2ccc(CNC)cc2c2ccc(-c3ccoc3)cc21` [PK9321], the ΔTm at 250 µM was determined as 2.1 ± 0.1 °C in assay [1] (setting [11]); 3.1 ± 0.1 °C in assay [2] (setting [12]); 0.2 ± 0.1 °C in assay [3]; 1.4 ± 0.1 °C in assay [4]; 0.7 ± 0.1 °C in assay [5].

In the case of `CCn1c2ccc(CNC)cc2c2ccc(-c3nccs3)cc21` [PK9322], the ΔTm at 250 µM came to 3 °C in assay [1] (setting [9]) and 3.4 °C in assay [2] (setting [10]). The Kd in assay [8] (ref 17 (Bauer et al.)) is 8.3 ± 2.6 µM.

For the compound `CCn1c2ccc(CNC)cc2c2ccc(-c3cscn3)cc21` [PK9323], the ΔTm at 250 µM is 3.7 ± 0.3 °C in assay [1] (setting [9]); 3.7 ± 0.3 °C in assay [1] (setting [11]); 3.1 ± 0.1 °C in assay [2] (setting [10]); 3.1 ± 0.1 °C in assay [2] (setting [12]); -0.4 ± 0.2 °C in assay [3]; 0.7 ± 0.1 °C in assay [4]. Moreover, the ΔTm at 250 µM in assay [5] is -0.3 ± 0.1 °C. The Kd in assay [6] is 5.9 ± 1.3 µM; in assay [8] (ref 17 (Bauer et al.)), 5.3 ± 1.4 µM.

`CCn1c2ccc(CNC)cc2c2ccc(-c3ccc(C)s3)cc21` [PK9327]: the ΔTm at 250 µM was 1.2 °C in assay [1] (setting [9]) and 3.7 ± 0.2 °C in assay [2] (setting [10]).

On to `CCn1c2ccc(CNC)cc2c2ccc(-c3cc(C)cs3)cc21` [PK9328], for which the ΔTm at 250 µM in assay [1] (setting [9]) came out at 1.5 ± 0.1 °C; in assay [2] (setting [10]) it was 3.7 °C.

On to `CCn1c2ccc(CNC)cc2c2ccc(-c3sccc3C)cc21` [PK9331], for which the values for the ΔTm at 250 µM in assay [1] (setting [9]) and in assay [2] (setting [10]) were 1.1 ± 0.1 °C and 2.1 ± 0.1 °C, respectively.

On to `CCn1c2ccc(CNC)cc2c2ccc(-c3cnoc3)cc21` [PK9424], for which the ΔTm at 250 µM worked out at 1.2 ± 0.1 °C in assay [1] (setting [9]) and 2.3 ± 0.1 °C in assay [2] (setting [10]).

The record behind these values is article PMC7307883, “Targeting Cavity-Creating p53 Cancer Mutations with Small-Molecule Stabilizers: the Y220X Paradigm” (ACS Chemical Biology, 2020).
